Results published in ChEMBL document CHEMBL5120782, “Structure and Candidate Biosynthetic Gene Cluster of a Manumycin-Type Metabolite from Salinispora pacifica” (J Nat Prod, 2022).

Experiments:
[1] = Antibacterial activity against Bacillus oceanisediminis CNY-977 assessed as reduction in microbial growth incubated for 18 hrs by CLSI based method; assay type: functional; conditions: Cytobacillus oceanisediminis
[2] = test system: NCI-H460; assay: Cytotoxicity against human NCI-H460 cells assessed as reduction in cell viability incubated for 48 hrs by MTT assay; assay type: functional, cell-based; conditions: NCI-H460, 48 h

MIC [1] [µM]	Compound	EC50 [2] [µM]
50	CC(C)=C[C@H](C)C[C@H](C)/C=C(\CO)C(=O)NC1=C[C@](O)(CCC(N)=O)[C@H]2O[C@H]2C1=O	
	CCCC/C=C/C=C/C=C/C=N/NN=O	5.5
